From PubChem BioAssay AID328 (DTP/NCI, 2004)
Toxic doses and inconclusive results are not listed.

System: BDF1 mice, P388 leukemia ip, median survival T/C
Assay: NCI In Vivo Anticancer Drug Screen. Data for tumor model P388 Leukemia (intraperitoneal) in B6D2F1 (BDF1) mice
Conditions: endpoint: median survival time, higher = longer survival
Outline: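 Transplantable tumour in mice; compound vs vehicle dosing; survival scored; ratio of treated to control reported.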

[1] = dose: 100.0 mg/kg/injection, schedule: Q04DX003 (ip), vehicle: saline sonified
[2] = dose: 50.0 mg/kg/injection, schedule: Q01DX009 (ip), vehicle: saline with Tween-80
[3] = dose: 100.0 mg/kg/injection, schedule: Q01DX009 (ip), vehicle: saline with Tween-80
[4] = dose: 200.0 mg/kg/injection, schedule: Q01DX009 (ip), vehicle: saline with Tween-80
[5] = dose: 200.0 mg/kg/injection, schedule: Q04DX003 (ip), vehicle: Klucel (hydroxypropylcellulose) (HPC)
[6] = dose: 25.0 mg/kg/injection, schedule: Q04DX003 (ip), vehicle: saline with Tween-80
[7] = dose: 50.0 mg/kg/injection, schedule: Q04DX003 (ip), vehicle: saline with Tween-80

CCN(CCN)c1cccc(C)c1 was tested, and the T/C (dose: 25.0 mg/kg/injection, schedule: Q04DX003 (ip), vehicle: saline sonified) was 100 % of control, the T/C (dose: 50.0 mg/kg/injection, schedule: Q04DX003 (ip), vehicle: saline sonified) was 120 % of control and the T/C [1] was 100 % of control.

With CC(N)(/C=C/c1ccccc1)C(=O)O (stereo not drawn) the T/C (dose: 50.0 mg/kg/injection, schedule: Q01DX005 (ip), vehicle: saline with Tween-80) was 101 % of control, the T/C (dose: 100.0 mg/kg/injection, schedule: Q01DX005 (ip), vehicle: saline with Tween-80) was 97 % of control and the T/C (dose: 200.0 mg/kg/injection, schedule: Q01DX005 (ip), vehicle: saline with Tween-80) was 113 % of control.

Cc1c(NS(=O)(=O)c2ccccc2)c(C)c(NS(=O)(=O)c2ccccc2)c(C)c1NS(=O)(=O)c1ccccc1 was tested, and the T/C [2] was 88 % of control, the T/C [3] was 91 % of control and the T/C [4] was 88 % of control.

With CCCCCn1c(Cl)c(/C=N\Nc2ccccc2[N+](=O)[O-])c2ccccc21 the T/C (dose: 100.0 mg/kg/injection, schedule: Q01DX001 (ip), vehicle: Klucel (hydroxypropylcellulose) (HPC)) was 105 % of control, the T/C (dose: 200.0 mg/kg/injection, schedule: Q01DX001 (ip), vehicle: Klucel (hydroxypropylcellulose) (HPC)) was 96 % of control and the T/C (dose: 400.0 mg/kg/injection, schedule: Q01DX001 (ip), vehicle: Klucel (hydroxypropylcellulose) (HPC)) was 118 % of control.

In the case of CCCCC(C)C(=O)CC(SCC)c1ccccc1 (stereo not drawn), the T/C [2] is reported as 103 % of control, the T/C [3] is reported as 114 % of control and the T/C [4] is reported as 105 % of control.

With Nc1nc(N)c(-c2ccc(Cl)c(Cl)c2)c(COc2cccc(CNC(=O)c3cccc(S(=O)(=O)F)c3)c2)n1 the T/C (dose: 132.0 mg/kg/injection, schedule: Q04DX003 (ip), vehicle: Klucel (hydroxypropylcellulose) (HPC)) was 109 % of control, the T/C (dose: 200.0 mg/kg/injection, schedule: Q01DX009 (ip), vehicle: Klucel (hydroxypropylcellulose) (HPC)) was 150 % of control and the T/C [5] was 119 % of control. The T/C (dose: 300.0 mg/kg/injection, schedule: Q01DX009 (ip), vehicle: Klucel (hydroxypropylcellulose) (HPC)) was 155 % of control.

With Cc1cnc(=S)n(-c2ccccc2)c1 the T/C (dose: 12.5 mg/kg/injection, schedule: Q04DX003 (ip), vehicle: saline with Tween-80) was 95 % of control, the T/C [6] was 104 % of control and the T/C [7] was 98 % of control.

With O=S(c1ccccc1)c1c(Cl)c(Cl)nc(Cl)c1Cl (stereo not drawn) the T/C (dose: 2.75 mg/kg/injection, schedule: Q01DX009 (ip), vehicle: saline with Tween-80) was 109 % of control, the T/C (dose: 5.5 mg/kg/injection, schedule: Q01DX009 (ip), vehicle: saline with Tween-80) was 118 % of control and the T/C (dose: 11.0 mg/kg/injection, schedule: Q01DX009 (ip), vehicle: saline with Tween-80) was 113 % of control. For the same molecule, the T/C [6] was 113 % of control and the T/C [7] was 121 % of control.

In the case of CCCCCCCCCCC(=O)OCC#CC#CCOC(=O)CCCCCCCCCC, the T/C (dose: 100.0 mg/kg/injection, schedule: Q04DX003 (ip), vehicle: Klucel (hydroxypropylcellulose) (HPC)) is reported as 104 % of control, the T/C [5] is reported as 104 % of control and the T/C (dose: 400.0 mg/kg/injection, schedule: Q04DX003 (ip), vehicle: Klucel (hydroxypropylcellulose) (HPC)) is reported as 100 % of control.

In the case of CC1CC(C)(C)N=C(C(Cc2ccc(Br)cc2)c2ccccc2)O1 (stereo not drawn), the T/C (dose: 100.0 mg/kg/injection, schedule: Q01DX001 (ip), vehicle: saline sonified) is reported as 95 % of control, the T/C (dose: 200.0 mg/kg/injection, schedule: Q01DX001 (ip), vehicle: saline sonified) is reported as 110 % of control and the T/C (dose: 400.0 mg/kg/injection, schedule: Q01DX001 (ip), vehicle: saline sonified) is reported as 110 % of control.

CNC(=S)ON1CCCCC1 was tested, and the T/C [2] was 116 % of control, the T/C [3] was 114 % of control and the T/C [4] was 121 % of control.

For CCOC(=O)C(O)c1cccc(OC)c1 (stereo not drawn), the T/C [3] was 100 % of control, the T/C [1] was 118 % of control and the T/C [4] was 100 % of control. For the same molecule, the T/C (dose: 200.0 mg/kg/injection, schedule: Q04DX003 (ip), vehicle: saline sonified) was 100 % of control, the T/C (dose: 400.0 mg/kg/injection, schedule: Q01DX009 (ip), vehicle: saline with Tween-80) was 104 % of control and the T/C (dose: 400.0 mg/kg/injection, schedule: Q04DX003 (ip), vehicle: saline sonified) was 100 % of control.

For O=S(=O)(O)c1ccc(Br)cc1, the T/C (dose: 100.0 mg/kg/injection, schedule: Q01DX009 (ip), vehicle: saline) was 92 % of control, the T/C (dose: 100.0 mg/kg/injection, schedule: Q04DX003 (ip), vehicle: saline) was 115 % of control and the T/C (dose: 200.0 mg/kg/injection, schedule: Q01DX009 (ip), vehicle: saline) was 107 % of control. For the same molecule, the T/C (dose: 200.0 mg/kg/injection, schedule: Q04DX003 (ip), vehicle: saline) was 110 % of control, the T/C (dose: 400.0 mg/kg/injection, schedule: Q01DX009 (ip), vehicle: saline) was 100 % of control and the T/C (dose: 400.0 mg/kg/injection, schedule: Q04DX003 (ip), vehicle: saline) was 115 % of control.
